Reference: the NIST ThermoML archive (doi:10.1016/j.jct.2015.09.012)

Legend:
[1] = 298.15 K; 101.33 kPa; Liquid; Vibrating tube method
[2] = molar heat capacity at constant pressure; conditions: Liquid
[3] = molar heat capacity at constant pressure; xn = mol fraction of the nth substance listed; conditions: 100 kPa, Liquid, Large sample (1 g) DSC

CC12CCC(CC1)C(C)(C)O2 [1,3,3-trimethyl-2-oxabicyclo[2.2.2]octane]
Conditions | mass density [kg/m3]
[1] | 920.51

[2]
Conditions | molar heat capacity at constant pressure [J/K/mol]
293.26 K, 101.33 kPa, Small sample (50 mg) DSC | 266.9
303.48 K, 101.33 kPa, Small sample (50 mg) DSC | 273
304.7 K, 100 kPa, Large sample (1 g) DSC | 273.3
309.6 K, 100 kPa, Large sample (1 g) DSC | 276.4
313.71 K, 101.33 kPa, Small sample (50 mg) DSC | 279.5
314.6 K, 100 kPa, Large sample (1 g) DSC | 279.5
319.5 K, 100 kPa, Large sample (1 g) DSC | 282.6
323.93 K, 101.33 kPa, Small sample (50 mg) DSC | 285.2
324.5 K, 100 kPa, Large sample (1 g) DSC | 285.1
334.16 K, 101.33 kPa, Small sample (50 mg) DSC | 290.8
344.38 K, 101.33 kPa, Small sample (50 mg) DSC | 297.7

CCO [ethanol] + CC12CCC(CC1)C(C)(C)O2
[3], x2 = 0
Conditions | molar heat capacity at constant pressure [J/K/mol]
304.7 K | 115.3
309.6 K | 117.3
314.6 K | 119.6
319.5 K | 121.9
324.5 K | 124.2

CCO [ethanol]
Conditions | mass density [kg/m3]
[1] | 785.2

[2], 100 kPa, Large sample (1 g) DSC
Conditions | molar heat capacity at constant pressure [J/K/mol]
304.7 K | 115.3
309.6 K | 117.3
314.6 K | 119.6
319.5 K | 121.9
324.5 K | 124.2

CC12CCC(CC1)C(C)(C)O2 [1,3,3-trimethyl-2-oxabicyclo[2.2.2]octane] + CCO
molar heat capacity at constant pressure [J/K/mol], [3]
Conditions | 304.7 K | 309.6 K | 314.6 K | 319.5 K | 324.5 K
x1 = 0.0506 | 123.9 | 126.2 | 128.6 | 131.1 | 133.5
x1 = 0.099 | 132 | 134.6 | 137.1 | 139.7 | 142.1
x1 = 0.1999 | 149 | 151.8 | 154.6 | 157.1 | 160
x1 = 0.3007 | 166 | 169 | 171.8 | 174.9 | 177.7
x1 = 0.3956 | 181.7 | 184.9 | 188.1 | 191.1 | 194.1
x1 = 0.5002 | 199.4 | 202.5 | 205.5 | 208.5 | 211.3
x1 = 0.5975 | 214.3 | 217.4 | 221.5 | 224.5 | 227.4
x1 = 0.7017 | 231.6 | 235.1 | 238 | 241.2 | 244.1
x1 = 0.8065 | 247.2 | 250.5 | 253.6 | 256.7 | 259.3
x1 = 0.8964 | 259.8 | 263.7 | 267 | 269.9 | 272.5
x1 = 0.9501 | 267 | 269.9 | 273.4 | 275.8 | 279
x1 = 1 | 273.3 | 276.4 | 279.5 | 282.6 | 285.1
